Entries after “also recorded” stand apart in the source; their conditions may differ.
Columns and labels:
Parkinson's disease = assay: Clinical case: person with Parkinson's disease; assay type: in vivo, human
Method: This therapeutic solution was tested on a person with Parkinson’s disease. A history of events over 3 years (current follow-up) is presented below:
Symptoms: At the very beginning of 2018, the first manifestations of Parkinson’s appeared: tremors in the left hand, slowing of walking pace, chaotic descent of stairs, tilting of the torso forward accompanied by back pain in the form of muscle contractures, as well as the beginnings of various obvious non-motor disorders (withdrawal, indifference, difficult decision-making, loss of joy in life, depression, etc.), constipation, hyposmia. Initially, ATT was tested as monotherapy.
Treatment: The problem then arose of deciding which dose to use. The patient was already taking ATT to treat a problem of benign prostatic hypertrophy (cf. patent WO2019/O73173) and used it with the greatest satisfaction at a dose of 3 cp to 25 mg, given in the morning and evening, but the dose turned out to be insufficient for treating Parkinson’s disease. A blood-brain barrier crossing problem was suspected and the decision was taken to increase this dose by 4 times by dividing it into 4 daily doses, i.e., 4 x 6 tablets/day (equivalent to 600 mg/day), so as to reduce concentration fluctuations as much as possible (the plasma half-life of ATT in humans is approximately 3 hrs).
Symptoms: In April-May 2019, unusual fatigue manifested when the patient performed strenuous tasks.
Treatment: Faced with worsening fatigue, the decision was taken, on Dec. 19, 2019, to add doxycycline at a dose of 50 mg every 6 hrs, which dose was intended to ensure stable concentrations in the LCR of approximately 0.9 µM/L (Dotevall, 1989; Karlsson, 1996), i.e., around 3 times what Gonzalez-Lizzaraga (2017) recommends.

[1] = test system: dopaminergic neurons in midbrain cultures; assay: Survival of dopaminergic (TH+) neurons in midbrain cultures under low-noise, spontaneous oxidative stress; assay type: cell-based, mouse; details: 7 days, FIG. 8
Method: Midbrain cultures and immunodetection of tyrosine hydroxylase (TH): Mouse midbrain cultures were produced based on a protocol initially described by Troadec and colleagues (2001) and subsequently taken up by Rousseau and colleagues (2013). The cultures were generated from Swiss mouse embryos (Janvier LABS, Le Genest-St Isles) taken from the pregnant mother on day 13.5 of gestation. The cells dissociated from the midbrain were cultured in 48-well plates containing 500 µl of DMEM/HamF12 medium, supplemented with 10% fetal bovine serum (Biowest LLC, Les Ulis, France). Approximately 80-100 10^3 cells were added initially to each culture well. After one hour, the initial medium was replaced with the DMEM/HamF12 medium supplemented with 20 µg/mL of insulin. The culture medium (350 µl) and the treatments were renewed on days 1 and 3 in vitro. The cultures were maintained for a total of 7 days before binding and analysis. […] TH^+ neurons were counted according to a protocol described previously (Rousseau et al, 2013). The counts are expressed as % of the values obtained in the control cultures treated with apotransferrin.
Statistical analysis: The experimental data correspond to mean ± SEM values. […] The data were analyzed with the GraphPad Prism 8.3.1 software or Sigmaplot 12.5 software using One-Way ANOVA, followed by a post-hoc Student Newman Keuls test.

[2] = in humans; cited from earlier work
[3] = cited from earlier work
[4] = test system: microglia in culture activated by LPS (TLR4 agonist); assay: TNF-a release (ELISA) in microglia in culture activated by LPS; assay type: cell-based, mouse
Source text: Purification of microglia: The cultures were produced from a cell suspension obtained by mechanical dissociation of the brains of newborn mice, C57BL/6J (Janvier LABS), according to a protocol described by Sepulveda-Diaz and colleagues (Glia, 2016) and modified subsequently by dos-Santos-Pereira and colleagues (Glia, 2020). The protocol used follows the directives of the Council of the European Union (2010/63/EU). It was approved by the Ethics Committee for Animal Experimentation, Charles Darwin no. 5. Corning culture flasks of 75 cm^2 precoated with a polycation, polyethyleneimine (PEI; 1 mg/mL) diluted in a borate buffer pH 8.3, were used so as to obtain spontaneous isolation of the microglial cells after 15-20 days of culture, this isolation taking place at the expense of other cell populations, in particular, astrocytes. In order to maintain the flask cultures, Dulbecco’s modified Eagle’s medium (DMEM) supplemented with 10% fetal bovine serum (FBS, Biowest LLC) and 1% penicillin/streptomycin cocktail was used (see experimental details described in the publication of Sepulveda-Diaz and colleagues). After the microglia purification step, the microglia adhering in the culture flasks were trypsinized to produce subcultures in 48-well multi-well Nunc plates. These cultures were maintained in the presence of DMEM, supplemented with 20 mM HEPES and 1% FBS. […]
(§1) Assessment of TNF-a levels: The culture medium of the microglia, recovered 24 hrs after the stimulation by the inflammogens was initiated, was then frozen at -20° C. until the analysis. TNF-a was detected with an ELISA kit from ThermoFisher (BMS607-3TWO), following the supplier’s instructions (dos-Santos-Pereira et al, Glia, 2020). The absorbance of each sample was measured at 450 nm with a SpectraMax i3X.
(§2) Statistical analysis: The experimental data were analyzed with the GraphPad Prism 8.3.1 software by applying a One-Way ANOVA test, followed by a post-hoc Student Newman Keuls test.

[5] = doxycycline 50 mg every 6 hrs; intended, from Dotevall, 1989; Karlsson, 1996; cited from earlier work
[6] = test system: microglia in culture activated by PAM3CSK4 (TLR2 agonist); assay: TNF-a release (ELISA) in microglia in culture activated by PAM3CSK4; assay type: cell-based, mouse; details: PAM3CSK4 1 µg/mL, 24 hrs; FIG. 4
Source text: Purification of microglia: The cultures were produced from a cell suspension obtained by mechanical dissociation of the brains of newborn mice, C57BL/6J (Janvier LABS), according to a protocol described by Sepulveda-Diaz and colleagues (Glia, 2016) and modified subsequently by dos-Santos-Pereira and colleagues (Glia, 2020). The protocol used follows the directives of the Council of the European Union (2010/63/EU). It was approved by the Ethics Committee for Animal Experimentation, Charles Darwin no. 5. […]
as §1, §2

a-synuclein [7] = target: T1, a-synuclein (Homo sapiens, UniProt P37840); assay: Amyloid aggregation of a-synuclein by orbital shaking, Thioflavin-T test; assay type: biochemical; details: ATX 1, 10 or 100 µM, 600 rpm, 37° C., 96 h; FIG. 5B
T1 construct: made in house; host or cells: Escherichia coli (plasmid pT7-7)
Method: Preparation of a-synuclein: Human recombinant a-synuclein was produced from a strain of Escherichia coli carrying a plasmid pT7-7 containing the coding sequence of the protein (Kaylor et al, J Mol Biol, 2005; Gonzalez-Lizarraga et al, Sci Rep, 2020). After a purification step, the purity of the protein was evaluated by polyacrylamide gel electrophoresis under denaturing conditions (SDS-PAGE). The stock solution of a-synuclein was prepared in a buffer containing 20 mM of HEPES and 150 mM of NaCl at pH 7.4. Before initiating the aggregation protocol, the protein was centrifuged at 12000 g for 30 minutes in order to eliminate the micro-aggregates. The protein concentration was measured at 280 nm with a Nanodrop 8000 spectrophotometer (Gonzalez-Lizarraga et al, Sci Rep, 2020).
Aggregation of a-synuclein […]: The aggregation protocol was adapted from previous work (Kaylor et al, J Mol Biol, 2005; Gonzalez-Lizarraga et al, Sci Rep, 2020). Briefly, the aggregation of a-synuclein was obtained by orbital shaking (600 rpm; Thermomixer Comfort; Eppendorf), at 37° C. for 96 h, of the recombinant protein (70 µM) solubilized in 20 mM of HEPES and 150 mM of NaCl, pH 7.4. Dimethylformamide (DMF) was used to dilute ATX in this experimental protocol. The formation of aggregated structures was monitored by means of the Thioflavin-T (ThT) test (LeVine et al, Meth Enzymol, 1999).

a-synuclein [8] = target: T1, a-synuclein; assay: Transmission electron microscopy of a-synuclein aggregates; assay type: biochemical; details: ATX 10 µM
Method: Transmission electron microscopy: The a-synuclein samples, shaken in the optional presence of the treatments of interest, were characterized by transmission electron microscopy. Aliquots of 50 µl of each solution were used for this analysis. The sample preparation protocol is described in detail by Gonzalez-Lizarraga and colleagues (2020). Images were obtained with a transmission electron microscope, Philips EM 301.

Compound: COc1ccc(-c2cc(=S)ss2)cc1 [ATT, anethole trithione]
- Duration of satisfactory treatment (Parkinson's disease; ATT 150 mg, 4 times a day): 13 months
- Duration of failure with the onset of new symptoms (Parkinson's disease; ATT 150 mg, 4 times a day, after the satisfactory period): 7 months
- Side effects (Parkinson's disease; two years of treatment): no significant side effects have been noted during these two years of treatment, apart from intestinal meteorism
- Protection as % of that of APO (apotransferrin) ([1]; 0.75 µM): 0.6%
- Plasma half-life [2]: approximately 3 hrs
- Metabolization of ATT ([3]; He 2011, Li TM 2007, Li WY 2008): metabolizes almost immediately and completely into ATX via O-demethylation
- ATT found in the patient's urine ([3]; over a 24-hour period): almost no ATT can be found

Compound: C[C@H]1c2cccc(O)c2C(=O)C2=C(O)[C@]3(O)C(=O)C(C(N)=O)=C(O)[C@@H](N(C)C)[C@@H]3[C@@H](O)[C@@H]21 [DOX, doxycycline]
- inhibition at 50 µM ([4]; Mus musculus, Microglia, LPS model, 50 µM of DOX, read-out: Inhibition of the release of TNFa): 50%
- inhibition at 100 µM ([4]; Mus musculus, Microglia, LPS model, 100 µM of DOX, read-out: Inhibition of the release of TNFa): ~70%
- Protective effect as % of that of apotransferrin ([1]; DOX 7.5 µM): 27%
- Stable concentrations in the LCR [5]: approximately 0.9 µM/L

Compound: Oc1ccc(-c2cc(=S)ss2)cc1 [ATX, 4-hydroxy-anethole trithione]
- Release of TNF-a (inflammation marker), result in words ([4]; LPS 10 ng/mL, 24 hrs, FIG. 3): capable of inhibiting the release of TNF-a
- Release of TNF-a (inflammation marker), result in words [6]: capable of inhibiting the release of TNF-a
- Inhibition of a-synuclein aggregation (ThT fluorescence), result in words (a-synuclein [7]): effective, even at a low concentration; also recorded: effectively and concentration-dependently inhibiting the aggregation
- Amyloid aggregation of a-synuclein seen by TEM (a-synuclein [8]): effectively reduces the amyloid aggregation of a-synuclein

Compound: N[C@@H](Cc1ccc(O)c(O)c1)C(=O)O [L-DOPA]
- Effect of introducing SINEMET (L-DOPA) on symptoms (Parkinson's disease; July 2019, patient on ATT 600 mg/day): solved the problem of loss of balance but the hand tremors only slightly improved and fatigue persisted

From patent US20230110065A1, “COMBINATION OF ANETHOLE TRITHIONE OR ITS DERIVATIVE, 4-OH-ANETHOLE TRITHIONE, WITH DOXYCYCLINE OR MINOCYCLINE FOR THE USE THEREOF IN THE TREATMENT OF PARKINSON'S DISEASE” (priority 2020, published 2023)
